Results as given in patent publication US12371454B2, “Cyclic peptide compound having Kras inhibitory action” (priority 2019, dated 2025).
Starred links: 1 amine or outer side, 2 acyl side, 3 side chain; linkers in the order of their positions; H or OH if unused. Positions of bridges follow the written chain, without caps; N, C: chain ends. Non-standard residues stand in square brackets, D forms with d. Residues, ends and D or L forms follow the SMILES beside them. *: point of attachment. hPhe(3-Cl-4-CF3) = N[C@@H](CCc1ccc(C(F)(F)F)c(Cl)c1)C(=O)O; X23 = CN([C@@H](Cc1ccccc1OC(F)(F)F)C(=O)[*:2])[*:1]; X25 = CN([C@@H](Cc1ccc(C(F)F)cc1)C(=O)[*:2])[*:1]; 3Oxa8azabicyclo(3.2.1)octane = C1CC2COCC1N2*; NMePhe(4-Me) = CN[C@@H](Cc1ccc(C)cc1)C(=O)O; NMePhe(4-F) = CN[C@@H](Cc1ccc(F)cc1)C(=O)O; NMePhe(4-I) = CN[C@@H](Cc1ccc(I)cc1)C(=O)O; NMedβ3hAla = C[C@H](CC(=O)[*:2])N(C)[*:1]; NMeAla(cPent) = CN[C@@H](CC1CCCC1)C(=O)O; NMeGly(cPent) = CN[C@H](C(=O)O)C1CCCC1; NMeGly(cBu) = CN[C@H](C(=O)O)C1CCC1; NMeCha = CN[C@@H](CC1CCCCC1)C(=O)O; NMehLeu = CN[C@@H](CCC(C)C)C(=O)O; NMeChg = CN[C@H](C(=O)O)C1CCCCC1; Gly(cBu) = N[C@H](C(=O)O)C1CCC1; NMeD = CN[C@@H](CC(=O)O)C(=O)O; NMeHpra = C#CCC[C@H](NC)C(=O)O; NMeL = CN[C@@H](CC(C)C)C(=O)O; NMeNva = CCC[C@H](NC)C(=O)O; NMeV = CN[C@H](C(=O)O)C(C)C; Trifluoroethyl = FC(F)(F)C*; d(β3hA) = C[C@@H](N)CC(=O)O; NMeAbu = CC[C@H](NC)C(=O)O; NMeS = CN[C@@H](CO)C(=O)O; Morpholide = C1CN(*)CCO1; NMeA = CN[C@@H](C)C(=O)O; Piperidide = C1CCN(*)CC1; Pyrrolidide = C1CCN(*)C1; Ac5c = NC1(C(=O)O)CCCC1; Aze = O=C(O)[C@@H]1CCN1; Ac4c = NC1(C(=O)O)CCC1; Cyclobutyl = C1CC(*)C1; Cyclopropyl = C1CC1*; Sar = CNCC(=O)O; Propyl = CCC*

Tests used:
[1] = system: Human pancreatic cancer cell line AsPC-1; assay: Measurement of AsPC-1 cell growth inhibition (AsPC-1 CGI); assay type: cell-based; conditions: 96 h
Method in brief: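 AsPC-1 cells in 15% FBS RPMI-1640 were exposed to test compound for 96 hours at 37° C, with CellTiter-Glo as endpoint.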

[2] = molecular target: T1, Kras and SOS1 (biotin-tagged human Kras loaded with GDP, His-tagged human SOS1) (Homo sapiens, UniProt P01116, G12D); assay: Protein-protein interaction inhibition between Kras and SOS1 (KrasGl2D-SOS PPI) using AlphaScreen; assay type: binding; conditions: AlphaScreen; biotin-tagged human Kras loaded with GDP, His-tagged human SOS1; read-out: KRAS G12D-SOS PPI IC50
T1 construct: made in house; host or cells: E. coli (stated for Kras only)
T1 sequence (P01116 1-188 isoform P01116-2 G12D): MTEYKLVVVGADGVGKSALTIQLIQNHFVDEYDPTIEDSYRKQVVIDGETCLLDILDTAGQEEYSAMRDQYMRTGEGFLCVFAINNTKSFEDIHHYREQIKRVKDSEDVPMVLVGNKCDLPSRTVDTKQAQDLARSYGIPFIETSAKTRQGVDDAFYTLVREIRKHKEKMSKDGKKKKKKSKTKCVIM
Method in brief: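 AlphaScreen format: Ni donor beads capture His-SOS1, streptavidin acceptor beads capture biotinylated Kras (E. coli-expressed, GDP-loaded post-purification). Excite 680 nm, read 520-620 nm.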

Structure (SMILES) | IC50 [1] [nM] | IC50 [2] [nM]
C#CCC[C@H]1C(=O)N[C@@H]([C@@H](C)CC)C(=O)N(C)CC(=O)N(C)CC(=O)N(C)[C@@H](Cc2ccc(I)cc2)C(=O)N(C)CC(=O)N[C@@H](CCc2ccc(C(F)(F)F)c(Cl)c2)C(=O)N2CCC[C@H]2C(=O)NC2(CCCC2)C(=O)N(C)[C@@H](C2CCCCC2)C(=O)N[C@H](C)CC(=O)N1C [Compound 300] (cyclo([Ac5c][NMeChg][d(β3hA)][NMeHpra]I[Sar][Sar][NMePhe(4-I)][Sar][hPhe(3-Cl-4-CF3)]P)) | 100 to 500 | 9.5
CC[C@H](C)[C@@H]1NC(=O)[C@H](CC(C)C)N(C)C(=O)C[C@@H](C(=O)N2CCCCC2)N(C)C(=O)[C@H](C2CCCCC2)N(C)C(=O)C2(CCCC2)NC(=O)[C@@H]2CCCN2C(=O)[C@H](CCc2ccc(C(F)(F)F)c(Cl)c2)NC(=O)CN(C)C(=O)[C@H](COC2CC2)N(C)C(=O)CN(C)C(=O)CN(C)C1=O [Compound 1731] ([NMeL]I[Sar][Sar][NMeS](Cyclopropyl)[Sar][hPhe(3-Cl-4-CF3)]P[Ac5c][NMeChg][NMeD]-Piperidide; lactam N-11) | 100 to 500 | 1.9
CC[C@H](C)[C@@H]1NC(=O)[C@H](CC(C)C)N(C)C(=O)C[C@@H](C(=O)N2CCCCC2)N(C)C(=O)[C@H](C2CCCCC2)N(C)C(=O)C2(CCCC2)NC(=O)[C@@H]2CCCN2C(=O)[C@H](CCc2ccc(C(F)(F)F)c(Cl)c2)NC(=O)CN(C)C(=O)[C@H](COCC(F)(F)F)N(C)C(=O)CN(C)C(=O)CN(C)C1=O [Compound 732] ([NMeL]I[Sar][Sar][NMeS](Trifluoroethyl)[Sar][hPhe(3-Cl-4-CF3)]P[Ac5c][NMeChg][NMeD]-Piperidide; lactam N-11) | 100 to 500 | 1.4
CC[C@H](C)[C@@H]1NC(=O)[C@H](CC(C)C)N(C)C(=O)C[C@@H](C(=O)N2CCCCC2)N(C)C(=O)[C@H](C2CCCCC2)N(C)C(=O)C2(CCCC2)NC(=O)[C@@H]2CCCN2C(=O)[C@H](CCc2ccc(C(F)(F)F)c(Cl)c2)NC(=O)CN(C)C(=O)[C@H](C2CCCC2)N(C)C(=O)CN(C)C(=O)CN(C)C1=O [Compound 1669] ([NMeL]I[Sar][Sar][NMeGly(cPent)][Sar][hPhe(3-Cl-4-CF3)]P[Ac5c][NMeChg][NMeD]-Piperidide; lactam N-11) | 100 to 500 | 1.8
CC[C@H](C)[C@@H]1NC(=O)[C@H](CC(C)C)N(C)C(=O)C[C@@H](C(=O)N2CCCCC2)N(C)C(=O)[C@H](C2CCCCC2)N(C)C(=O)C2(CCCC2)NC(=O)[C@@H]2CCCN2C(=O)[C@H](CCc2ccc(C(F)(F)F)c(Cl)c2)NC(=O)CN(C)C(=O)[C@H](CCC(C)C)N(C)C(=O)CN(C)C(=O)CN(C)C1=O [Compound 1830] ([NMeL]I[Sar][Sar][NMehLeu][Sar][hPhe(3-Cl-4-CF3)]P[Ac5c][NMeChg][NMeD]-Piperidide; lactam N-11) | 100 to 500 | 1.6
CC(C)C[C@H]1C(=O)N[C@@H](C(C)C)C(=O)N(C)CC(=O)N(C)CC(=O)N(C)[C@@H](CC2CCCCC2)C(=O)N(C)CC(=O)N[C@@H](CCc2ccc(C(F)(F)F)c(Cl)c2)C(=O)N2CCC[C@H]2C(=O)NC2(CCCC2)C(=O)N(C)[C@@H](C2CCCCC2)C(=O)N(C)[C@H](C(=O)N2CCCCC2)CC(=O)N1C [Compound 1798] ([NMeL]V[Sar][Sar][NMeCha][Sar][hPhe(3-Cl-4-CF3)]P[Ac5c][NMeChg][NMeD]-Piperidide; lactam N-11) | 50 to 100 | 1
CC[C@H](C)[C@@H]1NC(=O)[C@H](C)N(C)C(=O)C[C@@H](C)NC(=O)[C@H](C2CCCC2)N(C)C(=O)C2(CCC2)NC(=O)[C@@H]2CCCN2C(=O)[C@H](CCc2ccc(C(F)(F)F)c(Cl)c2)NC(=O)CN(C)C(=O)[C@H](Cc2ccc(C)cc2)N(C)C(=O)CN(C)C(=O)CN(C)C1=O [Compound 1466] (cyclo([Ac4c][NMeGly(cPent)][d(β3hA)][NMeA]I[Sar][Sar][NMePhe(4-Me)][Sar][hPhe(3-Cl-4-CF3)]P)) | 100 to 500 | 1
CC[C@H](C)[C@@H]1NC(=O)[C@H](CC(C)C)N(C)C(=O)C[C@@H](C(=O)N2CCCCC2)N(C)C(=O)[C@H](C(C)C)N(C)C(=O)C2(CCCC2)NC(=O)[C@@H]2CCCN2C(=O)[C@H](CCc2ccc(C(F)(F)F)c(Cl)c2)NC(=O)CN(C)C(=O)[C@H](COC2CCC2)N(C)C(=O)[C@@H]2CCN2C(=O)[C@H](C)N(C)C1=O [Compound 880] ([NMeL]I[NMeA][Aze][NMeS](Cyclobutyl)[Sar][hPhe(3-Cl-4-CF3)]P[Ac5c][NMeV][NMeD]-Piperidide; lactam N-11) | 100 to 500 | 2.9
CC[C@H](C)[C@@H]1NC(=O)[C@H](CC(C)C)N(C)C(=O)C[C@@H](C)N(C)C(=O)[C@H](C(C)C)N(C)C(=O)C2(CCCC2)NC(=O)[C@@H]2CCCN2C(=O)[C@H](CCc2ccc(C(F)(F)F)c(Cl)c2)NC(=O)CN(C)C(=O)[C@H](Cc2ccccc2OC(F)(F)F)N(C)C(=O)CN(C)C(=O)CN(C)C1=O [Compound 1633] (cyclo([Ac5c][NMeV][NMedβ3hAla][NMeL]I[Sar][Sar][X23][Sar][hPhe(3-Cl-4-CF3)]P)) | 100 to 500 | 50
CC[C@H](C)[C@@H]1NC(=O)[C@H](CC(C)C)N(C)C(=O)C[C@@H](C(=O)N(C)C)N(C)C(=O)[C@H](C2CCCC2)N(C)C(=O)C2(CCCC2)NC(=O)[C@H](Cc2ccc(C(F)F)cc2)N(C)C(=O)[C@H](CCc2ccc(C(F)(F)F)c(Cl)c2)NC(=O)CN(C)C(=O)[C@H](CC2CCCCC2)N(C)C(=O)[C@@H]2CCN2C(=O)[C@H](C)N(C)C1=O [Compound 1926] ([NMeL]I[NMeA][Aze][NMeCha][Sar][hPhe(3-Cl-4-CF3)][X25][Ac5c][NMeGly(cPent)][NMeD]-NMe2; lactam N-11) | 100 to 500 | 21
CCCOC[C@H]1C(=O)N(C)CC(=O)N[C@@H](CCc2ccc(C(F)(F)F)c(Cl)c2)C(=O)N2CCC[C@H]2C(=O)NC2(CCCC2)C(=O)N(C)[C@@H](C2CCCCC2)C(=O)N(C)[C@H](C(=O)N2CCOCC2)CC(=O)N(C)[C@@H](CC)C(=O)N[C@@H]([C@@H](C)CC)C(=O)N(C)CC(=O)N(C)CC(=O)N1C [Compound 1896] ([NMeAbu]I[Sar][Sar][NMeS](Propyl)[Sar][hPhe(3-Cl-4-CF3)]P[Ac5c][NMeChg][NMeD]-Morpholide; lactam N-11) | 100 to 500 | 0.49
CC(C)C[C@H]1C(=O)N[C@@H](C2CCC2)C(=O)N(C)CC(=O)N(C)CC(=O)N(C)[C@@H](CC2CCCCC2)C(=O)N(C)CC(=O)N[C@@H](CCc2ccc(C(F)(F)F)c(Cl)c2)C(=O)N2CCC[C@H]2C(=O)NC2(CCCC2)C(=O)N(C)[C@@H](C2CCCCC2)C(=O)N(C)[C@H](C(=O)N2C3CCC2COC3)CC(=O)N1C [Compound 1879] ([NMeL][Gly(cBu)][Sar][Sar][NMeCha][Sar][hPhe(3-Cl-4-CF3)]P[Ac5c][NMeChg][NMeD]-{3Oxa8azabicyclo(3.2.1)octane}; lactam N-11) | 50 to 100 | 0.66
CCCOC[C@H]1C(=O)N(C)CC(=O)N[C@@H](CCc2ccc(C(F)(F)F)c(Cl)c2)C(=O)N2CCC[C@H]2C(=O)NC2(CCCC2)C(=O)N(C)[C@@H](C2CCCCC2)C(=O)N(C)[C@H](C(=O)N2CCCC2)CC(=O)N(C)[C@@H](C2CCC2)C(=O)N[C@@H]([C@@H](C)CC)C(=O)N(C)CC(=O)N(C)CC(=O)N1C [Compound 126] ([NMeGly(cBu)]I[Sar][Sar][NMeS](Propyl)[Sar][hPhe(3-Cl-4-CF3)]P[Ac5c][NMeChg][NMeD]-Pyrrolidide; lactam N-11) | 50 to 100 | 0.5
CC[C@H](C)[C@@H]1NC(=O)[C@H](CC(C)C)N(C)C(=O)C[C@@H](C(=O)N(C)C)N(C)C(=O)[C@H](C2CCCC2)N(C)C(=O)C2(CCCC2)NC(=O)[C@H](Cc2ccc(F)cc2)N(C)C(=O)[C@H](CCc2ccc(C(F)(F)F)c(Cl)c2)NC(=O)CN(C)C(=O)[C@H](CC2CCCCC2)N(C)C(=O)[C@@H]2CCN2C(=O)[C@H](C)N(C)C1=O [Compound 920] ([NMeL]I[NMeA][Aze][NMeCha][Sar][hPhe(3-Cl-4-CF3)][NMePhe(4-F)][Ac5c][NMeGly(cPent)][NMeD]-NMe2; lactam N-11) | 100 to 500 | 15
CCC[C@H]1C(=O)N[C@@H]([C@@H](C)CC)C(=O)N(C)CC(=O)N(C)CC(=O)N(C)[C@@H](CC2CCCC2)C(=O)N(C)CC(=O)N[C@@H](CCc2ccc(C(F)(F)F)c(Cl)c2)C(=O)N2CCC[C@H]2C(=O)NC2(CCCC2)C(=O)N(C)[C@@H](C2CCCCC2)C(=O)N(C)[C@H](C(=O)N2C3CCC2COC3)CC(=O)N1C [Compound 1916] ([NMeNva]I[Sar][Sar][NMeAla(cPent)][Sar][hPhe(3-Cl-4-CF3)]P[Ac5c][NMeChg][NMeD]-{3Oxa8azabicyclo(3.2.1)octane}; lactam N-11) | 100 to 500 | 0.99
CC[C@H](C)[C@@H]1NC(=O)[C@H](CC(C)C)N(C)C(=O)C[C@@H](C(=O)N2CCCC2)N(C)C(=O)[C@H](C(C)C)N(C)C(=O)C2(CCCC2)NC(=O)[C@@H]2CCCN2C(=O)[C@H](CCc2ccc(C(F)(F)F)c(Cl)c2)NC(=O)CN(C)C(=O)[C@H](CC2CCCCC2)N(C)C(=O)[C@@H]2CCN2C(=O)[C@H](C)N(C)C1=O [Compound 1656] ([NMeL]I[NMeA][Aze][NMeCha][Sar][hPhe(3-Cl-4-CF3)]P[Ac5c][NMeV][NMeD]-Pyrrolidide; lactam N-11) | 100 to 500 | 1.4
